Assay results from patent publication US8283373B2, “Inhibitors of cytosolic phospholipase A2” (Pfizer Inc., priority 2005, dated 2012).

Columns and labels:
cPLA2α = biological target: T1, cPLA2α (Homo sapiens, UniProt P47712); experiment: GLU Micelle Assay; assay type: biochemical
T1 sequence (P47712 1-749): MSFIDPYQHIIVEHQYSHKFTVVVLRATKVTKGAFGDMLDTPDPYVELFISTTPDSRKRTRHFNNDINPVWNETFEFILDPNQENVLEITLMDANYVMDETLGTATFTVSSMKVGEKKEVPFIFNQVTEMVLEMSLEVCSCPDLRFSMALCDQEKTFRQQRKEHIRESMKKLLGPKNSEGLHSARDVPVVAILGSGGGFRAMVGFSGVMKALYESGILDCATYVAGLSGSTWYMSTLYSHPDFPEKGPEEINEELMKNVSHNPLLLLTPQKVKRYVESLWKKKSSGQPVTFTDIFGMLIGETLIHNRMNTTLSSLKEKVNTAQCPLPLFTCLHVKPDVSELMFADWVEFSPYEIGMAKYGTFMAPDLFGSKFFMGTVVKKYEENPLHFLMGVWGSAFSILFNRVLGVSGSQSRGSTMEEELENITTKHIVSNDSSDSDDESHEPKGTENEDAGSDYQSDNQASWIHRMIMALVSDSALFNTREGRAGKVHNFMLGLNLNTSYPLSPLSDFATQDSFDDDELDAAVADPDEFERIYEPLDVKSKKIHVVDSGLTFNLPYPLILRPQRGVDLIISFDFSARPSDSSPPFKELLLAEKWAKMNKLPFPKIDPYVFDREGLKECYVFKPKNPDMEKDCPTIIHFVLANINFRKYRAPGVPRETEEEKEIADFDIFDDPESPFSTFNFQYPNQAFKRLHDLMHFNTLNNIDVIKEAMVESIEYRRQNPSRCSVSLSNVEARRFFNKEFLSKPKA
Method: The assay was carried in a 96-well format using a fluorescent plate reader with a 355 nm excitation filter and a 460 nm emission filter (Lab Systems Fluoroscan II, Helsinki, Finland). The assay buffer contained 940 μM Triton X-100, 50 mM Hepes pH 7.4, 0.3 mM EDTA, 1 mM CaCl2 and 300 mM KCl. DTPC (1,2-O-tetradecyl-sn-glycero-3-phosphocholine, Avanti) at a final concentration of 120 μM was added the day of the experiment and GLU (7-Hydroxycoumarinyl-γ-linolenate, Biomol Research Lab, Inc.) at a final concentration of 90 μM was added immediately prior to each assay.
Compounds (10 μL) dissolved in DMSO were placed in duplicate wells of a black 96-well plate. Wells corresponding to the positive and negative controls contained DMSO without inhibitors. Just prior to the experiment, 200 μL assay buffer containing 90 μM GLU and 120 μM DTPC was added to all wells in the assay plate. Assay buffer (50 μL) was added to the negative, and 50 μL cPLA2α solution ([…] in assay buffer) was added to all other wells to initiate the reaction. The final concentration of enzyme was 1 μg/ml. The content of each well was mixed gently during the addition of the enzyme, and the plate was rapidly transferred to the fluorescent plate reader. The increase in fluorescence was read every 4 min for 84 min. The slope of the resulting line was determined and the inhibition was calculated using the equation below: Percent Inhibition=[1−(slope with inhibitor−slope negative control)/(slope positive control−slope negative control)]×100 Rat Whole Blood Assay

TXB2 = experiment: Rat Whole Blood Assay (A23187-stimulated TXB2); assay type: cell-based; details: A23187 5 μM
Method: Fresh blood was collected in heparinized tubes by cardiac puncture of male Sprague-Dawley rats. Aliquots of blood (0.6 mL) were incubated with either 6 μL solvent (DMSO), or 6 μL of test compounds at various concentrations for 15 minutes at 37° C. This was followed by incubation of the blood with 6 μL of calcium ionophore, A23187 (Sigma C-7522) diluted in DMSO for 10 min at 37° C. The final concentration of A23187 was 5 μM. DMSO (6 μL) was added in the unstimulated controls. The reactions were stopped by mixing 60 μL cold EDTA to give a final concentration of 20 mM. The blood was centrifuged at 6,500 rpm for 10 min on a microcentrifuge to obtain plasma. A 70 μL aliquot of plasma was mixed with 400 μL cold methanol for protein precipitation. After incubation at −80° C. for 30 min, the supernatant was obtained by centrifuging at 6,500 rpm for 10 min, and was assayed for TXB2 according to the manufacturer's procedure (Assay Designs, Inc.'s ELISA kit #900-002).

| IC50 (cPLA2α) [nM] | IC50 (TXB2; Rattus norvegicus) [nM] | SMILES | IC50 (TXB2) [nM] |
| --- | --- | --- | --- |
| 8 | 30 | O=C(O)c1ccc(CCCc2c(CCNS(=O)(=O)Cc3ccccc3Br)n(C(c3ccccc3)c3ccccc3)c3ccc(Cl)cc23)cc1 [Example 24, 4-{3-[2-(2-{[(2-bromobenzyl)sulfonyl]amino}ethyl)-5-chloro-1-(diphenylmethyl)-1H-indol-3-yl]propyl}benzoic acid] |  |
| 280 | 380 | CN(CCc1c(CCCc2ccc(C(=O)O)cc2)c2cc(Cl)ccc2n1C(c1ccccc1)c1ccccc1)S(=O)(=O)Cc1ccccc1C(F)(F)F [Example 11, 4-(3-{5-chloro-1-(diphenylmethyl)-2-[2-(methyl{[2-(trifluoromethyl)benzyl]sulfonyl}amino)ethyl]-1H-indol-3-yl}propyl)benzoic acid] |  |
| 21 | 60 | O=C(O)c1ccc(CCCc2c(CCNS(=O)(=O)Cc3ccccc3-c3ccncc3)n(C(c3ccccc3)c3ccccc3)c3ccc(Cl)cc23)cc1 [Example 30, 4-{3-[5-chloro-1-(diphenylmethyl)-2-(2-{[(2-pyridin-4-ylbenzyl)sulfonyl]amino}ethyl)-1H-indol-3-yl]propyl}benzoic acid] |  |
| 105 | 40 | CC(c1ccccc1C(F)(F)F)S(=O)(=O)NCCc1c(CCCc2ccc(C(=O)O)cc2)c2cc(Cl)ccc2n1C(c1ccccc1)c1ccccc1 (centres unmarked) [Example 23, 4-[3-(5-chloro-1-(diphenylmethyl)-2-{2-[({1-[2-(trifluoromethyl)phenyl]ethyl}sulfonyl)amino]ethyl}-1H-indol-3-yl)propyl]benzoic acid] |  |
| 38 | 30 | O=C(O)c1ccc(CCCc2c(CCNS(=O)(=O)Cc3c([N+](=O)[O-])cccc3C(F)(F)F)n(C(c3ccccc3)c3ccccc3)c3ccc(Cl)cc23)cc1 [Example 27, 4-(3-{5-chloro-1-(diphenylmethyl)-2-[2-({[2-nitro-6-(trifluoromethyl)benzyl]sulfonyl}amino)ethyl]-1H-indol-3-yl}propyl)benzoic acid] |  |
| 18 | 30 | O=C(O)c1ccc(CCCc2c(CCNS(=O)(=O)Cc3c(Br)cccc3Br)n(C(c3ccccc3)c3ccccc3)c3ccc(Cl)cc23)cc1 [Example 7, 4-{3-[5-chloro-2-(2-{[(2,6-dibromobenzyl)sulfonyl]amino}ethyl)-1-(diphenylmethyl)-1H-indol-3-yl]propyl}benzoic acid] |  |
| 30 | 30 | O=C(O)c1ccc(CCCc2c(CCNS(=O)(=O)Cc3ccccc3F)n(C(c3ccccc3)c3ccccc3)c3ccc(Cl)cc23)cc1 [Example 28, 4-{3-[5-chloro-1-(diphenylmethyl)-2-(2-{[(2-fluorobenzyl)sulfonyl]amino}ethyl)-1H-indol-3-yl]propyl}benzoic acid] |  |
| 260 | 140 | O=C(O)c1ccc(OCCc2c(CCNS(=O)(=O)Cc3ccccc3OCc3ccccc3)n(C(c3ccccc3)c3ccccc3)c3ccc(Cl)cc23)cc1 [Example 1, 4-{2-[2-[2-({[2-(benzyloxy)benzyl]sulfonyl}amino)ethyl]-5-chloro-1-(diphenylmethyl)-1H-indol-3-yl]ethoxy}benzoic acid] |  |
| 24 | 20 | O=C(O)c1ccc(CCCc2c(CCNS(=O)(=O)Cc3c(Cl)cccc3Cl)n(C(c3ccccc3)c3ccccc3)c3ccc(Cl)cc23)cc1 [Example 8, 4-{3-[5-chloro-2-(2-{[(2,6-dichlorobenzyl)sulfonyl]amino}ethyl)-1-(diphenylmethyl)-1H-indol-3-yl]propyl}benzoic acid] |  |
| 72 | 60 | O=C(O)c1ccc(CCCc2c(CCNS(=O)(=O)Cc3ccccc3O)n(C(c3ccccc3)c3ccccc3)c3ccc(Cl)cc23)cc1 [Example 40, 4-{3-[5-chloro-1-(diphenylmethyl)-2-(2-{[(2-hydroxybenzyl)sulfonyl]amino}ethyl)-1H-indol-3-yl]propyl}benzoic acid] |  |
| 68 | 20 | CC(c1ccccc1C(F)(F)F)S(=O)(=O)NCCc1c(CCS(=O)(=O)c2ccc(CCC(=O)O)cc2)c2cc(Cl)ccc2n1C(c1ccccc1)c1ccccc1 (centres unmarked) [Example 39, 3-(4-{[2-(5-chloro-1-(diphenylmethyl)-2-{2-[({1-[2-(trifluoromethyl)phenyl]ethyl}sulfonyl)amino]ethyl}-1H-indol-3-yl)ethyl]sulfonyl}phenyl)propanoic acid] |  |
| 26 | 20 | O=C(O)c1ccc(OCCc2c(CCNS(=O)(=O)Cc3ccccc3C(F)(F)F)n(C(c3ccccc3)c3ccccc3)c3ccc(Cl)cc23)cc1 [Example 5, 4-(2-{5-chloro-1-(diphenylmethyl)-2-[2-({[2-(trifluoromethyl)benzyl]sulfonyl}amino)ethyl]-1H-indol-3-yl}ethoxy)benzoic acid] |  |
| 18 | 50 | O=C(O)c1ccc(CCCc2c(CCNS(=O)(=O)Cc3ccccc3-c3ccccc3)n(C(c3ccccc3)c3ccccc3)c3ccc(Cl)cc23)cc1 [Example 29, 4-{3-[2-(2-{[(biphenyl-2-ylmethyl)sulfonyl]amino}ethyl)-5-chloro-1-(diphenylmethyl)-1H-indol-3-yl]propyl}benzoic acid] |  |
| 31 | 70 | O=C(O)c1ccc(CCCc2c(CCNS(=O)(=O)Cc3ccccc3-c3ccccc3OC(F)(F)F)n(C(c3ccccc3)c3ccccc3)c3ccc(Cl)cc23)cc1 [Example 36, 4-[3-(5-chloro-1-(diphenylmethyl)-2-{2-[({[2′-(trifluoromethoxy)biphenyl-2-yl]methyl}sulfonyl)amino]ethyl}-1H-indol-3-yl)propyl]benzoic acid] |  |
| 27 | 50 | CN(C)c1ccc(-c2ccccc2CS(=O)(=O)NCCc2c(CCCc3ccc(C(=O)O)cc3)c3cc(Cl)ccc3n2C(c2ccccc2)c2ccccc2)cc1 [Example 35, 4-{3-[5-chloro-2-{2-[({[4′-(dimethylamino)biphenyl-2-yl]methyl}sulfonyl)amino]ethyl}-1-(diphenylmethyl)-1H-indol-3-yl]propyl}benzoic acid] |  |
| 21 | 80 | CN1CCN(Cc2ccccc2CS(=O)(=O)NCCc2c(CCCc3ccc(C(=O)O)cc3)c3cc(Cl)ccc3n2C(c2ccccc2)c2ccccc2)CC1 [Example 22, 4-[3-(5-chloro-1-(diphenylmethyl)-2-{2-[({2-[(4-methylpiperazin-1-yl)methyl]benzyl}sulfonyl)amino]ethyl}-1H-indol-3-yl)propyl]benzoic acid] |  |
| 54 | 60 | O=C(O)c1ccc(OCCc2c(CCNS(=O)(=O)Cc3c(Br)cccc3Br)n(C(c3ccccc3)c3ccccc3)c3ccc(Cl)cc23)cc1 [Example 3, 4-{2-[5-chloro-2-(2-{[(2,6-dibromobenzyl)sulfonyl]amino}ethyl)-1-(diphenylmethyl)-1H-indol-3-yl]ethoxy}benzoic acid] |  |

| SMILES | IC50 (cPLA2α) [nM] | IC50 (TXB2; Rattus norvegicus) [nM] | IC50 (TXB2) [nM] |
| --- | --- | --- | --- |
| Cc1cccc([N+](=O)[O-])c1CS(=O)(=O)NCCc1c(CCCc2ccc(C(=O)O)cc2)c2cc(Cl)ccc2n1C(c1ccccc1)c1ccccc1 [Example 9] | 22 |  | 20 |
| Cc1cccc([N+](=O)[O-])c1CS(=O)(=O)NCCc1c(CCOc2ccc(C(=O)O)cc2)c2cc(Cl)ccc2n1C(c1ccccc1)c1ccccc1 [Example 4, 4-(2-{1-benzhydryl-5-chloro-2-[2-methyl-6-nitro-phenylmethanesulfonylamino)-ethyl-1-H-indol-3-yl}ethoxy)-benzoic acid] | 54 |  | 20 |
